Structures are written as SMILES.

In experiment [1] the target is T1, Acetylcholinesterase (Electrophorus electricus, UniProt O42275). As to the kind of experiment: Competitive inhibition of Electrophorus electricus acetylcholinesterase in presence of varying acetylthiocholine iodide substrate level preincubated for 20 mins followed by substrate addition measured every 1 min for 30 mins.
In experiment [2] the target is T1, Acetylcholinesterase. As to the kind of experiment: Non-competitive inhibition of Electrophorus electricus acetylcholinesterase in presence of varying acetylthiocholine iodide substrate level preincubated for 20 mins followed by substrate addition measured every 1 min for 30 mins.
Experiment [3] has as its target T2, Cholinesterase (Equus caballus, UniProt P81908). The experiment is described as follows: Competitive inhibition of equine serum butyrylcholinesterase in presence of varying butyrylthiocholine iodide substrate level preincubated for 20 mins followed by substrate addition measured every 1 min for 30 mins.
For experiment [4], the target named is T2, Cholinesterase. The experiment is described as follows: Non-competitive inhibition of equine serum butyrylcholinesterase in presence of varying butyrylthiocholine iodide substrate level preincubated for 20 mins followed by substrate addition measured every 1 min for 30 mins.

T1 sequence (O42275 whole entry): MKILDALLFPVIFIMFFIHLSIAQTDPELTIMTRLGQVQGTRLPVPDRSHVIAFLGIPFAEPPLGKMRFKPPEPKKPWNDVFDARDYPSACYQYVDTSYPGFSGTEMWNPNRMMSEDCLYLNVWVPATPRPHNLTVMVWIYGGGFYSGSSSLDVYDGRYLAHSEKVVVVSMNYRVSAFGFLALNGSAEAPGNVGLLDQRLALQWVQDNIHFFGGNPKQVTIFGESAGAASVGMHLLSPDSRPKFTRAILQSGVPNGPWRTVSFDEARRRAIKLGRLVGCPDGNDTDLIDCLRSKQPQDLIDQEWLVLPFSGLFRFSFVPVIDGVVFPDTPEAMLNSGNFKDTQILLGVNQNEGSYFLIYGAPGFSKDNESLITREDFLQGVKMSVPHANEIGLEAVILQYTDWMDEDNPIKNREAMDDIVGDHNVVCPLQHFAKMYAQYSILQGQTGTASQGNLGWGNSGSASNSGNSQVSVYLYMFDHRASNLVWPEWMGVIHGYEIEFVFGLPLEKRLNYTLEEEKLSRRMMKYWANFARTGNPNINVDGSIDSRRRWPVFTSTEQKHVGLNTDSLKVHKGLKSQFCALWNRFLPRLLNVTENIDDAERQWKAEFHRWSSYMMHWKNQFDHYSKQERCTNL
T2 sequence (P81908 whole entry): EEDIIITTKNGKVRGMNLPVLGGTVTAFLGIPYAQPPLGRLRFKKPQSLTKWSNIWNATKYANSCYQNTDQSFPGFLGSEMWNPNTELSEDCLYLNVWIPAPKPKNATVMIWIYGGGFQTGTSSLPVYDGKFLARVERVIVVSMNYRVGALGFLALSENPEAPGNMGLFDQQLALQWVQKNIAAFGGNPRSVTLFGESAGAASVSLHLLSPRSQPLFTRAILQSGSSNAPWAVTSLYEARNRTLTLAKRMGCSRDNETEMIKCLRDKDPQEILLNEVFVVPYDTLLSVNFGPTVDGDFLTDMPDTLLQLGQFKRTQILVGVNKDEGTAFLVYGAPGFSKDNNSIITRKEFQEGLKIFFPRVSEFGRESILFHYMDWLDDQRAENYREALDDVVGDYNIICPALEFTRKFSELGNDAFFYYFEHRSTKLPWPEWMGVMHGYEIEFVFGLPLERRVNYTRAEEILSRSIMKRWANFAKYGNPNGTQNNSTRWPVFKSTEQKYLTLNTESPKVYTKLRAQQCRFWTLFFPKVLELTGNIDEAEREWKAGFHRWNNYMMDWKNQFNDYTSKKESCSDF

`N=C(NC(=N)N1CCN(C(=N)NC(=N)Nc2ccc(Br)cc2)CC1)Nc1ccc(Br)cc1`: the Ki (as a rule, a measure of affinity in units of concentration, obtained from inhibition or displacement) at Acetylcholinesterase [1] came out at 3.43 µM; at Acetylcholinesterase [2], 35.5 µM; on Cholinesterase [3], 0.61 µM; on Cholinesterase [4], 3.84 µM.
On to `N=C(NC(=N)N1CCN(C(=N)NC(=N)Nc2ccccc2Br)CC1)Nc1ccccc1Br`, for which the Ki amounted to 4.19 µM on Acetylcholinesterase [1], 40.5 µM on Acetylcholinesterase [2], 1.25 µM on Cholinesterase [3] and 12.3 µM on Cholinesterase [4].
On to `N=C(NC(=N)N1CCN(C(=N)NC(=N)Nc2ccc(I)cc2)CC1)Nc1ccc(I)cc1`, for which the Ki at Acetylcholinesterase [1] stood at 5.08 µM; at Acetylcholinesterase [2] it was 49.1 µM; at Cholinesterase [3], 0.31 µM; at Cholinesterase [4], 2.74 µM.
With `N=C(NC(=N)N1CCN(C(=N)NC(=N)Nc2ccccc2I)CC1)Nc1ccccc1I`, the Ki was 1.56 µM at Acetylcholinesterase [1], over 100 µM on Acetylcholinesterase [2], 1.96 µM on Cholinesterase [3] and 11.2 µM at Cholinesterase [4].
For `N=C(NC(=N)N1CCN(C(=N)NC(=N)Nc2ccc([N+](=O)[O-])cc2)CC1)Nc1ccc([N+](=O)[O-])cc1` the same measures were 0.52 µM, 2.96 µM, 10.8 µM and 22.9 µM.
In the same order, the values of `N=C(NC(=N)N1CCN(C(=N)NC(=N)Nc2cccc(Br)c2)CC1)Nc1cccc(Br)c1` are 6.17 µM, 25.4 µM, 0.23 µM and 10.3 µM.
In the same order, the values of `CC(C)(C)c1ccc(NC(=N)NC(=N)N2CCN(C(=N)NC(=N)Nc3ccc(C(C)(C)C)cc3)CC2)cc1` are 1.41 µM, 21.8 µM, 0.12 µM and 4.41 µM.
`N=C(NC(=N)N1CCN(C(=N)NC(=N)Nc2cccc(F)c2)CC1)Nc1cccc(F)c1`: the Ki at Acetylcholinesterase [1] worked out at 14.9 µM; at Acetylcholinesterase [2] it was 104 µM; on Cholinesterase [3], 1.7 µM; at Cholinesterase [4] it was 32.9 µM.
`COc1ccc(NC(=N)NC(=N)N2CCN(C(=N)NC(=N)Nc3ccc(OC)cc3)CC2)cc1`: the Ki is 25.6 µM on Acetylcholinesterase [1], 88.9 µM at Acetylcholinesterase [2], 1.78 µM at Cholinesterase [3] and 35.1 µM at Cholinesterase [4].
In the same order, the values of `N=C(NC(=N)N1CCN(C(=N)NC(=N)Nc2cccc(I)c2)CC1)Nc1cccc(I)c1` are 2.79 µM, 19.9 µM, 0.21 µM and 3.04 µM.
Take `N=C(NC(=N)N1CCN(C(=N)NC(=N)Nc2ccc(OC(F)(F)F)cc2)CC1)Nc1ccc(OC(F)(F)F)cc1`: the Ki at Acetylcholinesterase [1] was 19.8 µM; at Acetylcholinesterase [2] it was 62.2 µM; on Cholinesterase [3] it was 3.34 µM; at Cholinesterase [4], over 20 µM.
For `N=C(NC(=N)N1CCN(C(=N)NC(=N)Nc2ccc(F)cc2)CC1)Nc1ccc(F)cc1` the same measures were 7.77 µM, 16.2 µM, 1.18 µM and 15.2 µM.
For the compound `COc1ccccc1NC(=N)NC(=N)N1CCN(C(=N)NC(=N)Nc2ccccc2OC)CC1`, the Ki on Acetylcholinesterase [1] was 4.34 µM; at Acetylcholinesterase [2], 13.7 µM; on Cholinesterase [3], 5.2 µM; at Cholinesterase [4], 34 µM.
For `Cc1ccc(NC(=N)NC(=N)N2CCN(C(=N)NC(=N)Nc3ccc(C)cc3)CC2)cc1` the same measures were 9.25 µM, over 100 µM, 0.45 µM and 11.8 µM.
In the same order, the values of `N=C(NC(=N)N1CCN(C(=N)NC(=N)Nc2cccc(Cl)c2)CC1)Nc1cccc(Cl)c1` are 4.45 µM, over 30 µM, 0.74 µM and 12.2 µM.
With `COc1cc(NC(=N)NC(=N)N2CCN(C(=N)NC(=N)Nc3cc(OC)c(OC)c(OC)c3)CC2)cc(OC)c1OC`, the Ki stood at 7.74 µM on Acetylcholinesterase [1], 41.2 µM at Acetylcholinesterase [2] and 9.03 µM at Cholinesterase [3].
In the case of `N=C(NC(=N)N1CCN(C(=N)NC(=N)Nc2ccccc2)CC1)Nc1ccccc1`, the Ki is 13.5 µM at Acetylcholinesterase [1], 69.2 µM on Acetylcholinesterase [2], 0.95 µM at Cholinesterase [3] and over 40 µM on Cholinesterase [4].
With `N=C(NC(=N)N1CCN(C(=N)NC(=N)Nc2ccccc2F)CC1)Nc1ccccc1F`, the Ki at Acetylcholinesterase [1] was 14.9 µM; on Acetylcholinesterase [2] it was 58.6 µM; at Cholinesterase [3], 6.82 µM; at Cholinesterase [4] it was 25.5 µM.
With `N=C(NC(=N)N1CCN(C(=N)NC(=N)Nc2ccc(Cl)cc2Cl)CC1)Nc1ccc(Cl)cc1Cl`, the Ki on Acetylcholinesterase [1] was determined as 9.34 µM; at Acetylcholinesterase [2], 75.3 µM; at Cholinesterase [3], 0.41 µM; on Cholinesterase [4] it was 7.51 µM.
In the same order, the values of `COc1cccc(NC(=N)NC(=N)N2CCN(C(=N)NC(=N)Nc3cccc(OC)c3)CC2)c1` are 10.4 µM, 45.2 µM, 3.02 µM and 54.8 µM.
As to `N=C(NC(=N)N1CCN(C(=N)NC(=N)Nc2ccccc2Cl)CC1)Nc1ccccc1Cl`, the inhibition constant Ki came out at 6.11 µM on Acetylcholinesterase [1], 66.7 µM at Acetylcholinesterase [2], 1.85 µM at Cholinesterase [3] and 12.7 µM at Cholinesterase [4].
For the compound `N=C(NC(=N)N1CCN(C(=N)NC(=N)Nc2ccc(Cl)cc2)CC1)Nc1ccc(Cl)cc1` [PICLOXYDINE], the inhibition constant (Ki) on Acetylcholinesterase [1] is 22 µM; at Acetylcholinesterase [2], 28.3 µM; on Cholinesterase [3], 0.62 µM; at Cholinesterase [4], 9.37 µM.

The values above are taken from ChEMBL document CHEMBL3877266, “Repurposing N,N'-bis-(arylamidino)-1,4-piperazinedicarboxamidines: An unexpected class of potent inhibitors of cholinesterases” (Eur J Med Chem, 2017).
